Consider one compound from patent US9750728B2, “Method and pharmaceutical composition for inhibiting PI3K/AKT/mTOR signaling pathway” (TARGETED THERAPEUTICS, LLC, priority 2012, dated 2017).

“Also recorded” adds a separate entry of the source.

Common to all, as to format: cell-based
One assay deals with Panc-1. Kind of assay: Colony formation assay (clonogenic assay). The following applies: Panc-1, rapamycin alone 1 nM and 10 nM. On the procedure: 1.2. Colony formation assay (clonogenic assay) was used to analyze the effect of ZPP or Y29794 on cancer cell survival. 10^3 Panc-1 cells were plated in 100 mm petri dish in triplicate fed with 10 ml of DMEM containing 10% FBS. The cells were then treated by ZPP for 7 days and cultured for additional three weeks. Cells were then rinsed three times with PBS, fixed with 100% ethanol for 15 min, and stained with 2% crystal violet ethanol solution. The stained colonies were counted. All the results are statistically analyzed by one way ANOVA and two tailed t-test.

Assay [1] deals with AKT phosphorylation (S473). Nature of the assay: Immunoblot analysis of AKT phosphorylation in cancer cells. Conditions: 24 hours. On the procedure:
(§1) 2.2 Immunoblot analysis of gene silencing of PRCP or PREP in cancer cells. Mouse anti-PRCP antibody was purchased from Abcam (Cambridge, Mass., USA). Goat anti-PREP antibody was purchased from R&D Systems (Minneapolis, Minn., USA). Mouse anti-R-actin antibody antibodies was from Santa Cruz Biotechnology (Santa Cruz, Calif., USA). Panc-1 pancreatic cancer cells and MCF7 breast cancer cells were cultured to 80% confluence, cells were rinsed three times with pre-cooled PBS, 500 μl of lysis buffer (150 mmol/L Nacl, 1% Triton-x-100, 50 mmol/l TrispH8.0, 1 mmol/L PMSF, 1 ug/L aprotinin, 1 ug/L leupeptin, 1 ug/L peptain) was added to the cells. Cells were scraped and transferred to a centrifuge tube with a pipette. The lysates were spun in a microcentrifuge at maximal speed for 10 minutes at 4° C. to get rid of the insoluble fraction. Protein concentration was determined by Bradford assay. For immunoprecipitation: 2-5 ug protein-specific antibodies were added to 250-500 ug of lysates in a tube and incubated on an ordital shaker 4° C. for 2-4 hours with moderate shaking, then 20 ul Protein G beads (Santa Cruz Biotechnology (Santa Cruz, Calif., USA.) were added and the mixture was incubated with moderate shaking for another hour. After washing the beads in lysis buffer five times, the immunoprecipitates were boiled in 2× Laemmli sample buffer (50 mmoL/L Tris-HCL (pH8.0), 100 mmoL/L DTT, 2% SDS, 0.1% bromophenol blue, 10% glycerol) for five minutes. The proteins were separated by conventional SDS-polyacrylamide gel electrophoresis (SDS-PAGE) electrophoresis and transferred to Amersham Hybond-P PVDF membrane (GE Company, Pittsburgh, Pa., USA). For immunoblot, the membrane was blocked in 2% BSA in TBST buffer (Tris 1.21 g+NaCl 5.84 g+800 ml H2O adjusted to pH 8.0 with HCl) for one hour and then incubated with primary antibodies in TBST at room temperature (22-25° C.) for 2 hours. After washing three times with TBST, the membrane was incubated with HRP-conjugated secondary antibodies for 0.5 hours at room temperature. After washing the membrane five times with TBST (5 minutes/each), the membrane was incubated with ECL chromogenic reagent (GE Company, Pittsburgh, Pa., USA) for 1-5 minutes. The blots were exposed to films in darkroom for 1-5 minute. The films were developed in an automatic X-OMAT Developer (KODAK, Rochester, N.Y., USA). […] PREP gene silencing (PREP KD) or PRCP gene silencing (PRCP KD) or gene silencing both PRCP and PREP (DKD) in MCF7 cells reduces expression of PREP and/or PRCP proteins compared with control cells (control) (FIGS. 6B & 6C).
3.1 Reduction in AKT phosphorylation is examined by immunoblot using rabbit anti-phospho-AKT […] and rabbit anti-pan AKT antibodies purchased from Cell Signaling Technology (Danvers, Mass., USA) in the cells with gene silencing of PRCP and/or PREP or treated with ZPP or Y29794. Reduction in PRCP and/or PREP is shown by Western blot and quantitative PCR described in 2.2.

The next assay has as its system IRS-1. Nature of the assay: Immunoblot analysis of IRS-1 (protein, phosphorylation, half-life, p85 coimmunoprecipitation). On the procedure:
as §1
3.2 AKT phosphorylation was examined by immunoblot as described in 3.1. IRS-1 expression was analyzed by immunoblot using anti-IRS-1 antibodies purchased from Santa Cruz Biotechnology (Santa Cruz, Calif., USA). Reduction in PRCP and/or PREP by gene silencing is shown by Western blot and quantitative PCR described in 2.2.
3.4 ZPP or Y29794 inhibits IRS-1 tyrosine phosphorylation and p85 PI3K subunit interaction with IRS-1 and PI3K kinase activity. Panc-1 cells were treated with ZPP (200 μM) or Y29794 (0.5 μM) for 24 hours. Lysates were immunoprecipitated with anti-IRS-1 antibodies and the anti-IRS-1 immunoprecipitates were used for PI3K kinase assay and anti-IRS-1 phospho-tyrosine and anti-p85 immunoblot analysis (FIG. 13). ZPP or Y29794 decreased IRS-1-associated PI3K activity (FIG. 13, upper) and tyrosine phosphorylation of IRS-1 and p85 (FIG. 13, lower).
As described in Example 2.2 and above, the cells with PRCP and PREP gene silencing were used for analysis of PRCP and PREP gene silencing and inhibition of serine phosphorylation and degradation of IRS-1 and its effects on response to rapamycin. […] Compared to control cells, DKD cells show […] serine phosphorylation (S307 and S636/639) of IRS-1 alongside with decreased tyrosine phosphorylation of IRS-1 (FIG. 18B). […]

Assay [2] concerns PI3K. Kind of assay: PI3K kinase assay in anti-p85 immunoprecipitates. Conditions: Panc-1, 24 hours; ZPP 200 μM, Y29794 0.5 μM or rapamycin alone, vs vehicle. On the procedure: (§2) PI3K kinase assay kit (Calbiochem, Bilerica, Mass., USA) was used to measure the IRS-1-associated or p85-associated PI3K kinase activity in cells. The indicated cells were treated with different conditions for 24 hours. The cells were rinsed three times with pre-cooled PBS, lysed in 500 μl of lysis buffer (150 mmol/L Nacl, 1% Triton-x-100, 50 mmol/1 Tris (pH8.0, 1 mmol/L PMSF, 1 μg/L aprotinin, 1 μg/Lleupeptin, 1 μg/L peptain). Cell lysates (500 μg, in triplicate) of were used for anti-IRS-1 or anti-p85 immunoprecipitation. The immunoprecipitates were resuspended in 200 μl assay buffer and mixed with the fluorescence-labeled PI3K substrate BODIPY-TMR-phosphatidylinositol (100 μM) and ATP (37° C.) for 1 hour. The fluorescence intensity was measured with a fluorometer (excitation wavelength of 540 nm, emission wavelength […]). The difference between fluorescence intensity between control immunoprecipitates (no lysates) and lysate immunoprecipitates was used to indicate PI3K kinase activity. IR-1 anti-rabbit antibody and rabbit anti-PI3K p85 antibody were purchased from Millipore Corporation (Billerica, Mass., USA). Panc-1 anti-p85 immunoprecipitates were used for PI3K kinase assay (FIG. 12) and immunoblot analysis (FIG. 12). Rapamycin treatment in control cells increased PI3K kinase activity (P<0.01).

The test system of assay [3] is PI3K. Kind of assay: PI3K kinase assay in anti-IRS-1 immunoprecipitates. Conditions: Panc-1, 24 hours; ZPP 200 μM, Y29794 0.5 μM or rapamycin alone. On the procedure: as §2, with “(P<0.01). […]” for “(P<0.01).”
The test system of assay [4] is mTOR (S2448) phosphorylation. Kind of assay: Immunoblot analysis of mTOR phosphorylation. Conditions: Panc-1; rapamycin, or Y29794 1 μM (FIG. 19D). On the technique in general: In western blotting, separated proteins are transferred to a membrane and probed.
Description: Mouse anti-PRCP antibody was purchased from Abcam (Cambridge, Mass., USA). Goat anti-PREP antibody was purchased from R&D Systems (Minneapolis, Minn., USA). Mouse anti-R-actin antibody antibodies was from Santa Cruz Biotechnology (Santa Cruz, Calif., USA). Panc-1 pancreatic cancer cells and MCF7 breast cancer cells were cultured to 80% confluence, cells were rinsed three times with pre-cooled PBS, 500 μl of lysis buffer (150 mmol/L Nacl, 1% Triton-x-100, 50 mmol/l TrispH8.0, 1 mmol/L PMSF, 1 ug/L aprotinin, 1 ug/L leupeptin, 1 ug/L peptain) was added to the cells. Cells were scraped and transferred to a centrifuge tube with a pipette. The lysates were spun in a microcentrifuge at maximal speed for 10 minutes at 4° C. to get rid of the insoluble fraction. Protein concentration was determined by Bradford assay. For immunoprecipitation: 2-5 ug protein-specific antibodies were added to 250-500 ug of lysates in a tube and incubated on an ordital shaker 4° C. for 2-4 hours with moderate shaking, then 20 ul Protein G beads (Santa Cruz Biotechnology (Santa Cruz, Calif., USA.) were added and the mixture was incubated with moderate shaking for another hour. After washing the beads in lysis buffer five times, the immunoprecipitates were boiled in 2× Laemmli sample buffer (50 mmoL/L Tris-HCL (pH8.0), 100 mmoL/L DTT, 2% SDS, 0.1% bromophenol blue, 10% glycerol) for five minutes. The proteins were separated by conventional SDS-polyacrylamide gel electrophoresis (SDS-PAGE) electrophoresis and transferred to Amersham Hybond-P PVDF membrane (GE Company, Pittsburgh, Pa., USA). For immunoblot, the membrane was blocked in 2% BSA in TBST buffer (Tris 1.21 g+NaCl 5.84 g+800 ml H2O adjusted to pH 8.0 with HCl) for one hour and then incubated with primary antibodies in TBST at room temperature (22-25° C.) for 2 hours. After washing three times with TBST, the membrane was incubated with HRP-conjugated secondary antibodies for 0.5 hours at room temperature. […]
Assay [5] deals with S6K (T389) phosphorylation. Nature of the assay: Immunoblot analysis of S6K phosphorylation. The following applies: Panc-1 cells incl. PRCP and PREP silenced cells, rapamycin (FIG. 18D). On the procedure: 2.2 Immunoblot analysis of gene silencing of PRCP or PREP in cancer cells. Mouse anti-PRCP antibody was purchased from Abcam (Cambridge, Mass., USA). Goat anti-PREP antibody was purchased from R&D Systems (Minneapolis, Minn., USA). Mouse anti-R-actin antibody antibodies was from Santa Cruz Biotechnology (Santa Cruz, Calif., USA). Panc-1 pancreatic cancer cells and MCF7 breast cancer cells were cultured to 80% confluence, cells were rinsed three times with pre-cooled PBS, 500 μl of lysis buffer (150 mmol/L Nacl, 1% Triton-x-100, 50 mmol/l TrispH8.0, 1 mmol/L PMSF, 1 ug/L aprotinin, 1 ug/L leupeptin, 1 ug/L peptain) was added to the cells. Cells were scraped and transferred to a centrifuge tube with a pipette. The lysates were spun in a microcentrifuge at maximal speed for 10 minutes at 4° C. to get rid of the insoluble fraction. Protein concentration was determined by Bradford assay. […]

Turning to `CO[C@H]1C[C@@H]2CC[C@@H](C)[C@@](O)(O2)C(=O)C(=O)N2CCCC[C@H]2C(=O)O[C@H]([C@H](C)C[C@@H]2CC[C@@H](O)[C@H](OC)C2)CC(=O)[C@H](C)/C=C(\C)[C@@H](O)[C@@H](OC)C(=O)[C@H](C)C[C@H](C)/C=C/C=C/C=C/1C` [rapamycin, (3S,6R,7E,9R,10R,12R,14S,15E,17E,19E,21S,23S,26R,27R,34aS)-9,10,12,13,14,21,22,23,24,25,26,27,32,33,34,34a-hexadecahydro-9,27-dihydroxy-3-[(1R)-2-[(1S,3R,4R)-4-hydroxy-3-methoxycyclohexyl]-1-methylethyl]-10,21-dimethoxy-6,8,12,14,20,26-hexamethyl-23,27-epoxy-3H-pyrido[2,1-c][1,4]oxaazacyclohentriacontine-1,5,11,28,29 (4H,6H,31H)-pentone], in the assay with Panc-1, the “cell survival (colony formation)” value was “did not affect”. Besides, the AKT phosphorylation result in assay [1] (MCF7, rapamycin 10 nM) is “increased; also recorded: induced an increase”; in assay [1] (Panc-1, rapamycin 10 nM), “significantly increased; also recorded: induced an increase”. Also, the IRS-1 protein result in the assay with IRS-1 (MCF7, rapamycin 10 nM, 24 hours) is listed as “increased; also recorded: induced an increase”; in the assay on IRS-1 (Panc-1, rapamycin 10 nM, 24 hours), “significantly increased; also recorded: induced an increase”; in the assay with IRS-1 (control Panc-1 cells, rapamycin, concentration not given), “increases; also recorded: induced increase”. In addition, the “tyrosine phosphorylation of IRS-1” value in the assay on IRS-1 (Panc-1, rapamycin 10 nM (FIG. 10A legend)) is listed as “increased”. For the same compound, in the assay with IRS-1 (control Panc-1 cells, rapamycin (FIG. 18D)), the “serine phosphorylation (S307 and S636/639) of IRS-1” value is recorded as “inhibits; also recorded: inhibiting”. Besides, the “PI3K kinase activity (p85-associated)” value with PI3K [2] is listed as “increases; also recorded: significantly elevated”. Moreover, the “IRS-1-associated PI3K activity” value in the assay on PI3K [3] is “increases; also recorded: significantly elevated”. For the same compound, the “mTOR (S2448) phosphorylation” value in assay [4] was “inhibits; also recorded: completely inhibited”. In assay [5], the “phosphorylation of S6K (T389)” value is on record as “completely inhibited”.
